Article PMC11374673, “Discovery of isoquinoline sulfonamides as allosteric gyrase inhibitors with activity against fluoroquinolone-resistant bacteria” (Nature Chemistry, 2024)
≈ marks a conversion by molar mass, not a printed value. Where “and” joins values, the source holds several entries; their conditions need not be identical. Equal values may be shown once. Read-outs that look alike come from different tables or passages of the source.

How the values were obtained:
HepG2 = test: Cytotoxicity assay (MTT); type: cell-based, human; conditions: for IC50: Homo sapiens, HepG2, 24 h, MTT, 24 h
Description: (§1) HepG2 (ATCC HB-8065) and HEK293T (ATCC CRL-3216) cell lines were cultured at 37 °C and 7% CO2 in Dulbecco’s modified Eagle medium (Sigma-Aldrich, D6546) with GlutaMax, penicillin (100 µg ml^−1), streptomycin (100 µg ml^−1) and 10% fetal calf serum. Cells were passaged twice a week by first detaching using 0.05% trypsin in phosphate-buffered saline (PBS) and then diluting to appropriate confluence. Compound cytotoxicity was evaluated using the standard (3-(4,5-dimethylthiazol-2-yl)-2,5-diphenyltetrazolium bromide (MTT) assay protocol (MTT assay protocol for cell viability and proliferation, Merck) with slight changes. HepG2 and HEK293T cells were seeded at a density of 1.5 × 10^4 cells per well in a clear 96-well tissue culture treated plate in a final volume of 100 µl in Dulbecco’s modified Eagle medium, supplemented with fetal bovine serum (1%), GlutaMax and penicillin/streptomycin. Cells were incubated for 24 h at 37 °C, 7% CO2 to allow cells to attach to the plates. […] Incubation was done for 24 h at 37 °C, 7% CO2. After the incubation, MTT was added to each well at a final concentration of 0.40 mg ml^−1. The plates were then incubated for 2 h at 37 °C, 7% CO2. Medium was carefully removed via suction, and purple formazan crystals were resuspended in 100 µl DMSO. Absorbance was read at 570 nm using a Clariostar plate reader with MARS (V4.20). The data were then analysed with GraphPad Prism software. IC50 values were calculated using non-linear fitted curve with variable slope settings, with values adjusted for background (plotted absorbance (ABS)sample = (ABSsample – ABSbackground) / (ABSvehicle – ABSbackground)). Technical triplicates for each condition were used, along with biological duplicates.

HEK293T = test: Cytotoxicity assay (MTT); type: cell-based, human; conditions: for MTT data (raw readout): HEK293T; for IC50: 24 h, MTT
Description: as §1

K. pneumoniae ATCC 29665 = test: MIC by broth microdilution; type: cell-based, Klebsiella pneumoniae; conditions: Klebsiella pneumoniae, ATCC29665, broth microdilution; read-out: MIC K. pneumoniae ATCC 29665
Description: (§2) MIC was determined by broth microdilution. Single-colony cultures were grown to exponential phase (OD600 of 0.5) aerobically at 37 °C. In case of strains from the Keio collection, 50 µg ml^−1 kanamycin was supplemented to the media to ascertain a homogeneous population. The bacterial suspensions were diluted 100-fold in CAMHB and 50 µl was added to a twofold serial dilution series of test compounds (50 µl per well) in polypropylene 96-well microtitre plates to reach a volume of 100 µl. The plates were sealed with breathable membranes and incubated overnight at 37 °C with constant shaking (600 r.p.m.).

E. coli W3110 = test: MIC by broth microdilution; type: cell-based, Escherichia coli; conditions: for MIC: broth microdilution, read-out: MIC E. coli W3110; for antimicrobial activity: relative to parent compound
Description: as §2

[1] = HepG2, 0.023 uM, experiment n = 1, technical triplicates
[2] = HepG2, 0.023 uM, experiment n = 2, technical triplicates
[3] = HepG2, 0.068 uM, experiment n = 1, technical triplicates
[4] = HepG2, 0.068 uM, experiment n = 2, technical triplicates
[5] = HepG2, 0.21 uM, experiment n = 1, technical triplicates
[6] = HepG2, 0.21 uM, experiment n = 2, technical triplicates
[7] = HepG2, 0.62 uM, experiment n = 1, technical triplicates
[8] = HepG2, 0.62 uM, experiment n = 2, technical triplicates
[9] = HepG2, 1.85 uM, experiment n = 1, technical triplicates
[10] = HepG2, 1.85 uM, experiment n = 2, technical triplicates
[11] = HepG2, 5.6 uM, experiment n = 1, technical triplicates
[12] = HepG2, 5.6 uM, experiment n = 2, technical triplicates
[13] = HepG2, 16.7 uM, experiment n = 1, technical triplicates
[14] = 0.023 uM, experiment n = 1, technical triplicates
[15] = 0.023 uM, experiment n = 2, technical triplicates
[16] = 0.068 uM, experiment n = 1, technical triplicates
[17] = 0.068 uM, experiment n = 2, technical triplicates
[18] = 0.21 uM, experiment n = 1, technical triplicates
[19] = 0.21 uM, experiment n = 2, technical triplicates
[20] = 0.62 uM, experiment n = 1, technical triplicates
[21] = 0.62 uM, experiment n = 2, technical triplicates
[22] = 1.85 uM, experiment n = 1, technical triplicates
[23] = 1.85 uM, experiment n = 2, technical triplicates
[24] = 5.6 uM, experiment n = 1, technical triplicates
[25] = 5.6 uM, experiment n = 2, technical triplicates
[26] = 16.7 uM, experiment n = 1, technical triplicates
[27] = 16.7 uM, experiment n = 2, technical triplicates
[28] = 50 uM, experiment n = 1, technical triplicates
[29] = 50 uM, experiment n = 2, technical triplicates

SMILES | MTT data (raw readout) (HepG2; [1]) | MTT data (raw readout) (HepG2; [2]) | MTT data (raw readout) (HepG2; [3]) | MTT data (raw readout) (HepG2; [4]) | MTT data (raw readout) (HepG2; [5]) | MTT data (raw readout) (HepG2; [6]) | MTT data (raw readout) (HepG2; [7]) | MTT data (raw readout) (HepG2; [8]) | MTT data (raw readout) (HepG2; [9]) | MTT data (raw readout) (HepG2; [10]) | IC50 (HepG2) | MTT data (raw readout) (HEK293T; [14]) | MTT data (raw readout) (HEK293T; [15]) | MTT data (raw readout) (HEK293T; [16]) | MTT data (raw readout) (HEK293T; [17]) | MTT data (raw readout) (HEK293T; [18]) | MTT data (raw readout) (HEK293T; [19]) | MTT data (raw readout) (HEK293T; [20]) | MTT data (raw readout) (HEK293T; [21]) | MTT data (raw readout) (HEK293T; [22]) | also measured
O=S(=O)(NCCNCc1ccc(-c2ccccc2)cc1)c1cccc2cnccc12 [Compound 56] | 0.559 and 0.503 and 0.453 | 0.586 and 0.547 and 0.578 | 0.490 and 0.488 and 0.494 | 0.579 and 0.616 and 0.615 | 0.573 and 0.504 and 0.507 | 0.577 and 0.574 and 0.618 | 0.495 and 0.510 and 0.493 | 0.602 and 0.579 and 0.597 | 0.533 and 0.518 and 0.529 | 0.634 and 0.597 and 0.638 | 16.7 µM | 0.760 and 0.712 and 0.710 | 0.814 and 0.790 and 0.847 | 0.777 and 0.824 and 0.787 | 0.796 and 0.816 and 0.794 | 0.818 and 0.751 and 0.739 | 0.813 and 0.836 and 0.832 | 0.783 and 0.761 and 0.744 | 0.785 and 0.778 and 0.750 | 0.680 and 0.683 and 0.658 | MTT data (raw readout) (HepG2; [11]): 0.550 and 0.534 and 0.503; MTT data (raw readout) (HepG2; [12]): 0.619 and 0.618 and 0.638; MTT data (raw readout) (HepG2; [13]): 0.186 and 0.116 and 0.134; MTT data (raw readout) (HepG2; HepG2, 50 uM, experiment n = 1, technical triplicates): 0.0047 and 0.0027; MTT data (raw readout) (HEK293T; [23]): 0.720 and 0.749 and 0.788; MTT data (raw readout) (HEK293T; [24]): 0.523 and 0.537 and 0.570; MTT data (raw readout) (HEK293T; [25]): 0.582 and 0.590 and 0.593; MTT data (raw readout) (HEK293T; [26]): 0.243 and 0.263 and 0.287; MTT data (raw readout) (HEK293T; [27]): 0.271 and 0.304 and 0.282; MTT data (raw readout) (HEK293T; [28]): 0.032 and 0.041 and 0.051; MTT data (raw readout) (HEK293T; [29]): 0.036 and 0.023 and 0.035; IC50 (HEK293T; Homo sapiens, HEK-293T): 10 µM; IC50 (HEK293T): 10.4 µM; MIC (K. pneumoniae ATCC 29665): 12.5 µM (≈ 5.22 µg/mL); MIC (E. coli W3110; Escherichia coli, W3110, WT): 6.25 µM (≈ 2.61 µg/mL); antimicrobial activity (E. coli W3110): equally potent
O=S(=O)(NCCNCc1ccc(-c2ccsc2)cc1)c1cccc2cnccc12 [Compound 57] | 0.512 and 0.502 and 0.507 | 0.479 and 0.518 and 0.476 | 0.477 and 0.445 and 0.510 | 0.538 and 0.507 and 0.588 | 0.485 and 0.473 and 0.497 | 0.529 and 0.523 and 0.494 | 0.426 and 0.445 and 0.470 | 0.529 and 0.507 and 0.472 | 0.360 and 0.379 and 0.361 | 0.404 and 0.395 and 0.409 | 8.2 µM | 0.793 and 0.726 and 0.620 | 0.807 and 0.803 and 0.611 | 0.732 and 0.738 and 0.650 | 0.765 and 0.761 and 0.569 | 0.722 and 0.771 and 0.628 | 0.825 and 0.737 and 0.605 | 0.689 and 0.691 and 0.563 | 0.748 and 0.715 and 0.545 | 0.625 and 0.610 and 0.502 | MTT data (raw readout) (HepG2; [11]): 0.268 and 0.278 and 0.299; MTT data (raw readout) (HepG2; [12]): 0.322 and 0.303 and 0.267; MTT data (raw readout) (HepG2; [13]): 0.206 and 0.230 and 0.232; MTT data (raw readout) (HepG2; HepG2, 16.7 uM, experiment n = 2, technical triplicates): 0.246 and 0.259; MTT data (raw readout) (HepG2; HepG2, 50 uM, experiment n = 2, technical triplicates): 0.039 and 0.047 and 0.038; MTT data (raw readout) (HEK293T; [23]): 0.678 and 0.632 and 0.506; MTT data (raw readout) (HEK293T; [24]): 0.490 and 0.501 and 0.402; MTT data (raw readout) (HEK293T; [25]): 0.448 and 0.475 and 0.377; MTT data (raw readout) (HEK293T; [26]): 0.253 and 0.231 and 0.202; MTT data (raw readout) (HEK293T; [27]): 0.296 and 0.267 and 0.213; MTT data (raw readout) (HEK293T; [28]): 0.051 and 0.066 and 0.048; MTT data (raw readout) (HEK293T; [29]): 0.078 and 0.094 and 0.056; IC50 (HEK293T; Homo sapiens, HEK-293T): 6.6 µM; MIC (K. pneumoniae ATCC 29665): 12.5 µM (≈ 5.29 µg/mL); MIC (E. coli W3110; Escherichia coli, W3110, WT): 6.25 µM (≈ 2.65 µg/mL); antimicrobial activity (E. coli W3110): equally potent
O=S(=O)(NCCNCc1ccc(-c2ccc(F)cc2)cc1)c1cccc2cnccc12 [Compound 59] | 1.000 and 0.992 and 0.989 | 0.854 and 0.789 and 0.774 | 0.940 and 0.990 and 0.945 | 0.876 and 0.808 and 0.777 | 0.977 and 1.029 and 0.973 | 0.822 and 0.816 and 0.771 | 0.952 and 1.030 and 0.967 | 0.836 and 0.820 and 0.813 | 0.913 and 0.914 and 0.948 | 0.795 and 0.749 and 0.743 | 1.7 µM | 1.333 and 1.279 and 1.355 | 1.390 and 1.481 and 1.407 | 1.383 and 1.359 | 1.383 and 1.292 and 1.538 | 1.318 and 1.351 and 1.256 | 1.291 and 1.248 and 1.339 | 1.028 and 1.043 and 1.203 | 1.142 and 1.303 and 1.183 | 0.845 and 0.882 and 0.691 | MTT data (raw readout) (HEK293T; [23]): 0.871 and 0.885 and 0.773; MTT data (raw readout) (HEK293T; [24]): 0.197 and 0.226 and 0.189; MTT data (raw readout) (HEK293T; [25]): 0.227 and 0.205 and 0.278; MTT data (raw readout) (HEK293T; [26]): 0.068 and 0.048 and 0.059; MTT data (raw readout) (HEK293T; [28]): 0.036 and 0.035 and 0.032; MTT data (raw readout) (HEK293T; [29]): 0.032 and 0.034 and 0.028; IC50 (HEK293T; Homo sapiens, HEK-293T): 1.7 µM; IC50 (HEK293T): 2.6 µM; MIC (K. pneumoniae ATCC 29665): 6.25 µM (≈ 2.72 µg/mL); MIC (E. coli W3110; Escherichia coli, W3110, WT): 3.1 µM (≈ 1.35 µg/mL); MIC (E. coli W3110; WT): 3.125 µM (≈ 1.36 µg/mL); antimicrobial activity (E. coli W3110): twofold increase in potency
